From USPP13279P2, “Mint plant named ‘Saksham’” (Council of Scientific and Industrial Research, priority 2000, dated 2002)

System: in vitro regenerates (shoots) of Mentha arvensis ‘Himalaya’ somaclones
Assay: Menthol tolerance/toxicity test of in vitro regenerates in MS based medium containing menthol
Type: cell-based
Source text: The applicants used the plant ‘Himalaya’ (U.S. Plant Pat. No. 10,935), an elite mint genotype for large scale screening of in vitro raised clones (Khanuja S P S, Shasany A K, Dhawan S, Sushil Kumar, 1998, Rapid procedure for isolating somaclones of altered genotypes in Mentha arvensis. J medicinal and Aromatic Plant Sciences 20:359-361) to select clones tolerant to high menthol concentration in the medium (An efficient in vitro selection procedure for large scale screening of mint clones to isolate high menthol genotypes. Khanuja et al, Procedure patent pending, 1999).
While testing the tolerance of in vitro regenerates in presence of menthol in the MS based medium (Murashige T and Skoog F, 1962, A revised medium for rapid growth and bioassay with tobacco tissue cultures; Physiol. Planta. 15 473-497), the initial toxicity symptoms were first observed at the menthol concentration of 40 μg ml^−1 menthol after 7 days. […] Here it was immediate chlorophyll loss and irreversible wilting of the shoots, non-rescuable even by culturing these regenerates in normal medium without menthol. Lowest survival was detected at a concentration of 70 μg ml^−1, where only 1% shoots could survive. […] Ultimately 36, clones were selected for tolerance at 70 μg ml^−1 menthol by screening about 2950 clones. These were transferred to field for evaluation in a plant test area at Lucknow, India. […]

CC1CCC(C(C)C)C(O)C1 (centres unmarked) [menthol]
menthol concentration tolerated in the culture medium (clone GRB-30 (‘Saksham’), retesting in vitro): 80 µg/mL | shoots that could survive (lowest survival) (menthol 70 μg ml^−1 in the medium): 1%
